Experiments:
[1] = system: histone H3 (Ser28) phosphorylation; test: Western blotting of histone H3 Ser28 and Ser10 phosphorylation in asynchronous HeLa S3 cells (Example 8); type: cell-based, human; details: concentration series, compared with phospho-Aurora B (Thr232), FIG. 26
[2] = system: PD marker candidate genes (BIRC5, KNTC2, PRC1, TACC3, DLG7) in HeLa-S3 cells; test: Real-time PCR of PD marker candidate genes after treatment with Aurora A inhibitor (Example 2); type: cell-based, human; details: 24 hours, FIGS. 6 to 10
Experimental: A predetermined concentration of 6-((4-(2,3-difluorobenzoyl)piperazin-1-yl)methyl)-N-thiazol-2-ylpyridin-2-amine was acted on HeLa-S3 cells; and after 24 hours, the cells were collected, the total RNA was isolated and then converted into cDNA, and this was processed for real-time PCR in the same manner as in Example 1.

[3] = system: Aurora B (Thr232) phosphorylation; test: Western blotting of total Aurora B and phospho-Aurora B (Thr232) in synchronized HeLa S3 cells with Aurora inhibitors (Example 7); type: cell-based, human; details: 300 nM added 4 hours after release, sampling 0 to 24 hours, FIG. 24
Experimental: First, HeLa S3 cells were synchronized at the GI/S boundary by the above-mentioned double-thymidine block, and after 4 hours from the start of release, a control (DMSO, final 0.5%), an Aurora A-selective inhibitor 6-((4-(2,3-difluorobenzoyl)piperazin-1-yl)methyl)-N-thiazol-2-ylpyridin-2-amine (in FIG. 24, this is shown as “Aurora A Inhibitor 1”), an Aurora B inhibitor ZM477439 (J. Cell. Biol., Vol. 161, p. 267, 2003) or a pan-Aurora inhibitor VX-680 was added in an amount of 300 nM, followed by sampling at regular intervals for 0 to 24 hours. Next, the samples were analyzed for total Aurora B and phospho-Aurora B (Thr232) expression by western blotting.

[4] = system: PD marker candidate genes in HeLa-luc cancer graft; test: Expression change of PD marker candidate genes in planted cancer, continuous administration to rat (Example 3); type: in vivo, F344/N Jcl-rnu female nude rat; details: nude rat with HeLa-luc graft, intravenous drip infusion for 48 hours
Experimental: (§1) First, a cervical cancer strain HeLa-luc cells were subcutaneously transplanted to the back of an F344/N Jcl-rnu female nude rat. After 1 week, a […] cancer nude rat was subjected to femoral vein cannulation operation; and using a syringe pump, an Aurora A inhibitor 6-((4-(2-fluoro-3-(trifluoromethyl)benzoyl)piperazin-1-yl)methyl)-N-1H-pyrazol-3-ylpyrazin-2-amine was administered by intravenous drip infusion for 48 hours. After the administration, the collected cancer graft and the skin specimen were frozen and stored in liquid nitrogen.
Next, the total RNA was isolated from the collected cancer graft and formed into cDNA, which was checked for the expression change of the PD marker candidate genes. In addition to 5 genes identified in culture cells, Aurora A (AurA) and Aurora B (AurB) were also investigated as candidate genes. The primer probe sets for Aurora A and B are as follows. For every primer and probe, a human gene was used as the template.

[5] = system: Aurora B (Thr232) phosphorylation; test: Western blotting of phospho-Aurora B (Thr232), Aurora B, Survivin, Plk1 in asynchronous HeLa S3 cells with Aurora A-selective inhibitor (Example 6); type: cell-based, human; details: for ratio of phospho-Aurora B/Aurora B: based on the compound concentration 0 nM of 1
Experimental: (§2) First, asynchronously-cultured HeLa S3 cells were planted in an amount of 1×10^6 cells, and incubated overnight at 37° C. in 5% CO2. At 10:00 on the next day, the medium was exchanged with a medium to which 6-((4-(3-chloro-2-fluorobenzoyl)piperazin-1-yl)methyl)-N-thiazol-2-ylpyridin-2-amine had been added to be a final concentration of 0, 30, 100, 300, 1000, 3000, 10000, 30000 nM, and then, after 8 hours and 24 hours, the cells were peeled with trypsin and collected. A half of the cells was analyzed by western blotting; ¼ of the cells were analyzed for cell cycle through flow cytometry; and the last remaining ones were analyzed for phosphorylation of histone H3 (Ser10). The cell samples processed in the same manner were analyzed for expression profiling through TaqMan-PCR.

[6] = system: histone H3 (Ser10) phosphorylation; test: Histone H3 (Ser10) phosphorylation by flow cytometry in HeLa S3 cells (Example 6); type: cell-based, human; details: FIG. 23
Experimental: as §2

[7] = system: HeLa S3 cells; test: Cell cycle analysis by flow cytometry in asynchronous HeLa S3 cells with Aurora A-selective inhibitor (Example 6); type: cell-based, human; details: 8 hours and 24 hours, FIGS. 20, 21
Experimental: as §2

[8] = system: PD marker candidate genes in rat skin; test: Expression change of PD marker candidate genes in skin, continuous administration to rat (Example 4); type: in vivo; details: same rat skin as Example 3 (intravenous drip infusion for 48 hours); FIGS. 13 to 16
Experimental: as §1
The same rat skin as that used in Example 3 was checked for the expression change of PD marker candidate genes through real-time PCR. The primers of the candidate genes in the rat are as shown below. For every primer and probe, a rat gene was used as the template. The probe was modified with FAM/TAMRA.

[9] = HeLa S3 cells, 8 hours and 24 hours
[10] = HeLa S3 cells, expression admitted in the background with no compound addition

With O=C(c1cccc(F)c1F)N1CCN(Cc2cccc(Nc3nccs3)n2)CC1 [6-((4-(2,3-difluorobenzoyl)piperazin-1-yl)methyl)-N-thiazol-2-ylpyridin-2-amine] the “phospho-histone H3 (Ser28) induction by inhibitor” value [1] was “concentration-dependent induction”, the “expression level of the PD marker candidate genes (BIRC5, KNTC2, PRC1, TACC3, DLG7)” value [2] was “increased dependently on the Aurora A inhibitor concentration” and the “Aurora B expression” value [3] was “expressed Aurora B to a high level even after 10 hours”. For the same compound, the “phospho-Aurora B (Thr232) expression” value [3] was “remarkably increased”.

With O=C(c1cccc(C(F)(F)F)c1F)N1CCN(Cc2cncc(Nc3cc[nH]n3)n2)CC1 [6-((4-(2-fluoro-3-(trifluoromethyl)benzoyl)piperazin-1-yl)methyl)-N-1H-pyrazol-3-ylpyrazin-2-amine] the “expression of BIRC5 in cancer graft” value [4] was “significantly increased”, the “expression of DLG7 in cancer graft” value [4] was “significantly increased” and the “peak of the expression change (dose)” value [4] was 1 mpk. The “expression level of the PD marker candidate genes in cancer graft” value ([4]; FIGS. 11 and 12) was “increased”.

For O=C(c1cccc(Cl)c1F)N1CCN(Cc2cccc(Nc3nccs3)n2)CC1 [6-((4-(3-chloro-2-fluorobenzoyl)piperazin-1-yl)methyl)-N-thiazol-2-ylpyridin-2-amine], the “concentration range in which Aurora B inhibition begins (phosphorylation of Aurora B again inhibited)” value ([5]; HeLa S3 cells) was > 30 µM, the “expression of phospho-Aurora B (Thr232)” value ([5]; HeLa S3 cells, 0-30000 nM, exposure 8 hours and 24 hours, FIG. 22) was “increased dependently on the administration concentration” and the “concentration of phosphorylation depression of Aurora B (considered Aurora B inhibition)” value [5, 9] was ≥ 30 µM. The “expression level of Aurora B” value [5, 9] was “did not change so much”, the “expression induction window of Plk1” value [5, 10] was “at most 3.5 times” and the “expression induction window of Survivin” value [5, 10] was “at most 3.5 times”. For the same compound, the “ratio of phospho-Aurora B/Aurora B” value ([5]; exposure period of 8 hours) was “at most 16 times”, the “ratio of phospho-Aurora B/Aurora B” value ([5]; exposure period of 24 hours) was “up to 10 times” and the “Histone H3 (Ser10) phosphorylation in flow cytometry” value [6] was “could not take a large window”. The “concentration from which the proportion of the M-stage began to increase” value [7] was “around 300 nM” and the “concentration up to which the M-stage was kept” value [7] was “around 10 μM”.

Cc1cc(Nc2cc(N3CCN(C)CC3)nc(Sc3ccc(NC(=O)C4CC4)cc3)n2)n[nH]1 [VX-680] was tested, and the “phospho-histone H3 (Ser28) induction by inhibitor” value [1] was “did not have a phosphorylation band at all”, the “Aurora B expression” value [3] was “detected on the same level as that in the control” and the “phospho-Aurora B (Thr232) expression” value [3] was “no phospho-Aurora B was detected at all”.

With COc1cc2c(Nc3ccc(NC(=O)c4ccccc4)cc3)ncnc2cc1OCCCN1CCOCC1 [ZM477439] the “Aurora B expression” value [3] was “detected on the same level as that in the control” and the “phospho-Aurora B (Thr232) expression” value [3] was “no phospho-Aurora B was detected at all”.

O=C(O)[C@]1(Cc2cccc(Nc3nccs3)n2)CC[C@@H](Oc2cccc(Cl)c2F)CC1 [trans-4-(3-chloro-2-fluorophenoxy)-1-((6-(1,3-thiazol-2-ylamino)pyridin-2-yl)methyl)cyclohexanecarboxylic acid] was tested, and the “expression level of the candidate genes in rat skin” value [8] was “significantly increased”.

From US20100022404A1, “Gene/protein marker for prediction or diagnosis of pharmacological efficacy of aurora a inhibitor” (priority 2006, published 2010)
